For 20 compounds, EC50 results are on record in patent US20250206757A1 (GASHERBRUM BIO, INC., priority 2022, published 2025).

One may read the EC50 as the concentration that produces a half-maximal response.

For this experiment, the target named is GLP-1 Receptor (Homo sapiens, UniProt P43220). Briefly: GLP-1R agonist cAMP stimulation assay (HEK293/GLP1R/CRE-LUC cells, HTRF cAMP dynamic 2 kit). In kind it is cell-based. The following applies: HEK293/CRE-Luc cell line stably expressing the GLP-1 Receptor; 30 min incubation at 37° C. The method in brief: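 HEK293 cells stably expressing GLP-1R with CRE-Luc, 1000 cells/well in DPBS with 0.5 mM IBMX and 0.10% BSA, exposed to half-log compound dilutions for 30 min at 37 °C. cAMP measured by HTRF (665/615 nm) after 1 h at room temperature.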
GLP-1 Receptor, sequence (P43220 24-463): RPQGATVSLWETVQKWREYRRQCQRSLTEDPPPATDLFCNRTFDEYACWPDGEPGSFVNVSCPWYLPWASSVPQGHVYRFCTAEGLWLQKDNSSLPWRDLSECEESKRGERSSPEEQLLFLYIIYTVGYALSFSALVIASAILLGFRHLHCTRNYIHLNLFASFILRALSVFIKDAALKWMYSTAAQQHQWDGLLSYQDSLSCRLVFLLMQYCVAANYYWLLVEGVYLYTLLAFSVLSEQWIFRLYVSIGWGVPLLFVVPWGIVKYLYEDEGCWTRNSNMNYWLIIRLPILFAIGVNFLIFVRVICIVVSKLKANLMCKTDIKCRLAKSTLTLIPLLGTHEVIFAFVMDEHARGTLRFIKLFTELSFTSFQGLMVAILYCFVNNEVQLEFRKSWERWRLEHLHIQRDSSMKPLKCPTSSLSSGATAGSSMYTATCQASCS

Turning to `Fc1cc(Cl)ccc1COc1nc2c(cc1C(F)(F)F)CCN(Cc1nc3cc(-c4nnc(C(F)(F)F)[nH]4)ncc3n1C[C@H]1CCCO1)C2` [Compound 78, 2-[(4-chloro-2-fluorophenyl)methoxy]-7-[(3-{1[(2R)-oxolan-2-yl]methyl}-6-[5-(trifluoromethyl)-4H-1,2,4-triazol-3-yl]-3H-imidazo[4,5-c]pyridin-2-yl)methyl]-3-(trifluoromethyl)-5,6,7,8-tetrahydro-1,7-naphthyridine], the EC50 was in the range of 1 to 300 nM.

For the compound `Fc1cc(Cl)ccc1COc1nc2c(cc1C(F)(F)F)CCN(Cc1nc3cc(-c4nnc(C(F)(F)F)[nH]4)ncc3n1C[C@@H]1CCCO1)C2` [Compound 79, 2-[(4-chloro-2-fluorophenyl)methoxy]-7-[(3-{1[(2S)-oxolan-2-yl]methyl}-6-[5-(trifluoromethyl)-4H-1,2,4-triazol-3-yl]-3H-imidazo[4,5-c]pyridin-2-yl)methyl]-3-(trifluoromethyl)-5,6,7,8-tetrahydro-1,7-naphthyridine], the EC50 fell in the range of 1 to 300 nM.

`COCCn1c(CN2CCc3cc(C(F)(F)F)c(OCc4ccc(Cl)cc4F)nc3C2)nc2cc(-c3nnc(C(F)(F)F)[nH]3)ncc21` [Compound 80, 2-[(4-chloro-2-fluorophenyl)methoxy]-7-{[3-(2-methoxyethyl)-6-[5-(trifluoromethyl)-4H-1,2,4-triazol-3-yl]-3H-imidazo[4,5-c]pyridin-2-yl]methyl}-3-(trifluoromethyl)-5,6,7,8-tetrahydro-1,7-naphthyridine] gave an EC50 of 1 to 300 nM. The value for `CC(c1nc2cc(-c3nnc(C(F)(F)F)[nH]3)ncc2n1C[C@@H]1CCO1)N1CCc2cc(C(F)(F)F)c(OCc3ccc(Cl)cc3F)nc2C1` (stereo partly drawn) [Compound 82, 2-[(4-chloro-2-fluorophenyl)methoxy]-7-[1-(3-{[(2S)-oxetan-2-yl]methyl}-6-[5-(trifluoromethyl)-4H-1,2,4-triazol-3-yl]-3H-imidazo[4,5-c]pyridin-2-yl)ethyl]-3-(trifluoromethyl)-5,6,7,8-tetrahydro-1,7-naphthyridine] was below 1 nM. Next, `CC(c1nc2cc(-c3nnc(C(F)(F)F)[nH]3)ncc2n1C[C@@H]1CCO1)N1CCc2cc(C(F)(F)F)c(OCc3c(F)cc(Cl)cc3F)nc2C1` (stereo partly drawn) [Compound 83, 2-[(4-chloro-2,6-difluorophenyl)methoxy]-7-[1-(3-{1[(2S)-oxetan-2-yl]methyl}-6-[5-(trifluoromethyl)-4H-1,2,4-triazol-3-yl]-3H-imidazo[4,5-c]pyridin-2-yl)ethyl]-3-(trifluoromethyl)-5,6,7,8-tetrahydro-1,7-naphthyridine]: below 1 nM. The value for `CC(c1nc2cc(-c3nnc(C#N)[nH]3)ncc2n1C[C@@H]1CCO1)N1CCc2cc(C(F)(F)F)c(OCc3c(F)cc(Cl)cc3F)nc2C1` (stereo partly drawn) [Compound 84, 5-[2-(1-{2-[(4-chloro-2,6-difluorophenyl)methoxy]-3-(trifluoromethyl)-5,6,7,8-tetrahydro-1,7-naphthyridin-7-yl}ethyl)-3-{1[(2S)-oxetan-2-yl]methyl}-3H-imidazo[4,5-c]pyridin-6-yl]-4H-1,2,4-triazole-3-carbonitrile] was below 1 nM; that for `Fc1cc(Cl)ccc1COc1nc2c(cc1C(F)(F)F)CCN(Cc1nc3cc(-c4nnc(S)[nH]4)ccc3n1C[C@@H]1CCO1)C2` [Compound 85, 5-[2-({2-[(4-chloro-2-fluorophenyl)methoxy]-3-(trifluoromethyl)-5,6,7,8-tetrahydro-1,7-naphthyridin-7-yl}methyl)-1-{[(2S)-oxetan-2-yl]methyl}-1H-1,3-benzodiazol-5-yl]-4H-1,2,4-triazole-3-thiol] was below 1 nM.

`CSc1nnc(-c2ccc3c(c2)nc(CN2CCc4cc(C(F)(F)F)c(OCc5ccc(Cl)cc5F)nc4C2)n3C[C@@H]2CCO2)[nH]1` [Compound 86, 2-[(4-chloro-2-fluorophenyl)methoxy]-7-({5-[5-(methylsulfanyl)-4H-1,2,4-triazol-3-yl]-1-{[(2S)-oxetan-2-yl]methyl}-1H-1,3-benzodiazol-2-yl}methyl)-3-(trifluoromethyl)-5,6,7,8-tetrahydro-1,7-naphthyridine] returned an EC50 below 1 nM.

For the compound `CS(=O)(=O)c1nnc(-c2ccc3c(c2)nc(CN2CCc4cc(C(F)(F)F)c(OCc5ccc(Cl)cc5F)nc4C2)n3C[C@@H]2CCO2)[nH]1` [Compound 87, 2-[(4-chloro-2-fluorophenyl)methoxy]-7-{[5-(5-methanesulfonyl-4H-1,2,4-triazol-3-yl)-1-{[(2S)-oxetan-2-yl]methyl}-1H-1,3-benzodiazol-2-yl]methyl}-3-(trifluoromethyl)-5,6,7,8-tetrahydro-1,7-naphthyridine], the EC50 is 1 to 300 nM. The value for `Fc1cc(Cl)ccc1COc1nc2c(cc1C(F)(F)F)CCN(Cc1nc3c(F)c(-c4nnn[nH]4)ccc3n1C[C@@H]1CCO1)C2` [Compound 88, 2-[(4-chloro-2-fluorophenyl)methoxy]-7-[(4-fluoro-1-{[(2S)-oxetan-2-yl]methyl}-5-(1H-1,2,3,4-tetrazol-5-yl)-1H-1,3-benzodiazol-2-yl)methyl]-3-(trifluoromethyl)-5,6,7,8-tetrahydro-1,7-naphthyridine] was below 1 nM; that for `Fc1cc(Cl)cc(F)c1COc1nc2c(cc1C(F)(F)F)CCN(Cc1nc3cc(-c4nnn[nH]4)cnc3n1C[C@@H]1CCO1)C2` [Compound 89, 2-[(4-chloro-2,6-difluorophenyl)methoxy]-7-[(3-{[(2S)-oxetan-2-yl]methyl}-6-(11H-1,2,3,4-tetrazol-5-yl)-3H-imidazo[4,5-b]pyridin-2-yl)methyl]-3-(trifluoromethyl)-5,6,7,8-tetrahydro-1,7-naphthyridine] was below 1 nM. `Fc1cc(Cl)cc(F)c1COc1nc2c(cc1C(F)(F)F)CCN(Cc1nc3cc(-c4nnn[nH]4)ncc3n1C[C@@H]1CCO1)C2` [Compound 90, 2-[(4-chloro-2,6-difluorophenyl)methoxy]-7-[(3-{[(2S)-oxetan-2-yl]methyl}-6-(11H-1,2,3,4-tetrazol-5-yl)-3H-imidazo[4,5-c]pyridin-2-yl)methyl]-3-(trifluoromethyl)-5,6,7,8-tetrahydro-1,7-naphthyridine] showed an EC50 below 1 nM. `Cc1cc2c(nc1OCc1c(F)cc(Cl)cc1F)CN(Cc1nc3cc(-c4nnn[nH]4)ncc3n1C[C@@H]1CCO1)CC2` [Compound 91, 2-[(4-chloro-2,6-difluorophenyl)methoxy]-3-methyl-7-[(3-{[(2S)-oxetan-2-yl]methyl}-6-(1H-1,2,3,4-tetrazol-5-yl)-3H-imidazo[4,5-c]pyridin-2-yl)methyl]-5,6,7,8-tetrahydro-1,7-naphthyridine] displayed an EC50 below 1 nM.

For the compound `NC(=O)c1ccc2c(c1)nc(CN1CCc3cc(C(F)(F)F)c(OCc4ccc(Cl)cc4F)nc3C1)n2C[C@@H]1CCO1` [Compound 92, 2-({2-[(4-chloro-2-fluorophenyl)methoxy]-3-(trifluoromethyl)-5,6,7,8-tetrahydro-1,7-naphthyridin-7-yl}methyl)-1-{[(2S)-oxetan-2-yl]methyl}-1H-1,3-benzodiazole-5-carboxamide], the EC50 lay within 1 to 300 nM. The value for `CS(=O)(=O)NC(=O)c1ccc2c(c1)nc(CN1CCc3cc(C(F)(F)F)c(OCc4ccc(Cl)cc4F)nc3C1)n2C[C@@H]1CCO1` [Compound 93, 2-({2-[(4-chloro-2-fluorophenyl)methoxy]-3-(trifluoromethyl)-5,6,7,8-tetrahydro-1,7-naphthyridin-7-yl}methyl)-N-methanesulfonyl-1-{[(2S)-oxetan-2-yl]methyl}-1H-1,3-benzodiazole-5-carboxamide] was below 1 nM; that for `CNC(=O)c1nnc(-c2cc3nc(CN4CCc5cc(C(F)(F)F)c(OCc6ccc(Cl)cc6F)nc5C4)n(C[C@@H]4CCO4)c3cn2)[nH]1` [Compound 94, 5-[2-({2-[(4-chloro-2-fluorophenyl)methoxy]-3-(trifluoromethyl)-5,6,7,8-tetrahydro-1,7-naphthyridin-7-yl}methyl)-3-{[(2S)-oxetan-2-yl]methyl}-3H-imidazo[4,5-c]pyridin-6-yl]-N-methyl-4H-1,2,4-triazole-3-carboxamide] was below 1 nM. With `CN(C)C(=O)c1nnc(-c2cc3nc(CN4CCc5cc(C(F)(F)F)c(OCc6ccc(Cl)cc6F)nc5C4)n(C[C@@H]4CCO4)c3cn2)[nH]1` [Compound 95, 5-[2-({2-[(4-chloro-2-fluorophenyl)methoxy]-3-(trifluoromethyl)-5,6,7,8-tetrahydro-1,7-naphthyridin-7-yl}methyl)-3-{[(2S)-oxetan-2-yl]methyl}-3H-imidazo[4,5-c]pyridin-6-yl]-N,N-dimethyl-4H-1,2,4-triazole-3-carboxamide], the EC50 lay within 1 to 300 nM. The value for `O=c1[nH]nc(-c2cc3nc(CN4CCc5cc(C(F)(F)F)c(OCc6ccc(Cl)cc6F)nc5C4)n(C[C@@H]4CCO4)c3cn2)o1` [Compound 96, 5-[2-({2-[(4-chloro-2-fluorophenyl)methoxy]-3-(trifluoromethyl)-5,6,7,8-tetrahydro-1,7-naphthyridin-7-yl}methyl)-3-{[(2S)-oxetan-2-yl]methyl}-3H-imidazo[4,5-c]pyridin-6-yl]-2,3-dihydro-1,3,4-oxadiazol-2-one] was below 1 nM; that for `O=c1[nH]nc(-c2cc3nc(CN4CCc5cc(C(F)(F)F)c(OCc6ccc(Cl)cc6F)nc5C4)n(C[C@@H]4CCO4)c3cn2)[nH]1` [Compound 97, 3-[2-({2-[(4-chloro-2-fluorophenyl)methoxy]-3-(trifluoromethyl)-5,6,7,8-tetrahydro-1,7-naphthyridin-7-yl}methyl)-3-{[(2S)-oxetan-2-yl]methyl}-3H-imidazo[4,5-c]pyridin-6-yl]-4,5-dihydro-1H-1,2,4-triazol-5-one] was below 1 nM; that for `Fc1cc(Cl)ccc1COc1nc2cc(Cc3nc4cc(-c5nnc(C(F)(F)F)[nH]5)ncc4n3C[C@@H]3CCO3)ccc2cc1C(F)(F)F` [Compound 98, 2-[(4-chloro-2-fluorophenyl)methoxy]-7-[(3-{[(2S)-oxetan-2-yl]methyl}-6-[5-(trifluoromethyl)-4H-1,2,4-triazol-3-yl]-3H-imidazo[4,5-c]pyridin-2-yl)methyl]-3-(trifluoromethyl)quinoline] was below 1 nM.
